In patent US10336792B2, “Antimicrobial peptide dendrimers” (priority 2014, dated 2019):
Values after ≈ are worked out from the molar mass of the structure shown. Read-outs that look alike come from different tables or passages of the source. Positions of bridges follow the written chain, without caps; N, C: chain ends. Non-standard residues stand in square brackets, D forms with d. Residues, ends and D or L forms follow the SMILES beside them. Groups on a side chain read outwards from the residue. Chains are numbered I, II in the order given. Dab = NCC[C@H](N)C(=O)O

Legend:
[1] = tested on: Staphylococcus aureus (COL, MRSA reference strain); assay type: cell-based; conditions: COL, reference strain
Procedure, shortened: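 Broth microdilution in Müller-Hinton medium, two-fold serial dilutions from a starting 32–256 μg/mL, compounds dissolved in PBS; inoculum about 5×10^5 CFU, incubated 37° C ~18 h. MIC taken as lowest concentration with no visible growth by eye; polymyxin as reference.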

B. subtilis BR151 = test: Preliminary resistant development assay (daily MIC for 15 days); assay type: cell-based, Bacillus subtilis; conditions: bacteria from 1/2 MIC well re-tested daily
Procedure: MICs of compounds for B. subtilis BR151 were determined daily for 15 days using cells from the well in which the compound concentration was one-half the MIC value (½ MIC well). […] The re-suspension was then diluted to 5×10^5 cells/ml in LB Broth (OD600=0.1 then diluted 1:100 fold to get OD600=0.001) and used to again determine the MIC of the same compound to which those cells had previously been exposed. All MIC determinations were done in duplicate.
For an initial estimation of how fast resistances could arise with AMPDs the MIC was repeated for 15 days in a row and determined each day. After obtaining the MIC value in usual broth dilution assay the bacteria (B. subtilis) from the ½ MIC well were incubated for 2-5 hours and the dilution assay was repeated. This procedure was realized for 15 days and the MICs of each day compared. In case of an increase of the MIC, it is indicative for a resistance against the AMPDs.

[2] = 5(6)-Carboxyfluorescein leakage from lipid vesicles; conditions: 10 mM TRIS, 107 mM NaCl, pH 7.4; peptide added at 50 s
Procedure: (§1) Preparation A thin lipid film was prepared by evaporating a solution of 25 mg Egg PC or Egg PG in 1 mL MeOH/CHCl3 1/1 on a rotary evaporator (rt) and then in vacuo overnight. The resulting film was hydrated with 1 mL buffer (50 mM CF, 10 mM TIRS, 10 mM NaCl, pH 7.4) for 30 min, subjected to freeze-thaw cycles (7×) and extrusion (15×) through a polycarbonate membrane (pore size 100 nm). Extravesicular components were removed by gel filtration (Sephadex G-50) with 10 mM TRIS, 107 mM NaCl, pH 7.4. Final conditions: ˜2.5 mM Egg PC or Egg PG; inside: 50 mM CF, 10 mM TIRS, 10 mM NaCl, pH 7.4; outside: 10 mM TRIS, 107 mM NaCl, pH 7.4.
(§2) Experiment Egg PC or Egg PG stock solutions (37.5 μL) were diluted with a buffer (10 mM TRIS, 107 mM NaCl, pH 7.4) and placed in a thermostated fluorescence cuvette (25° C.) and gently stirred (total volume in the cuvette ˜3000 μL; final lipid concentration ˜31.25 μM). CF efflux was monitored at λem 517 nm (λex 492 nm) as a function of time after addition of 20 μL of peptide dendrimer in buffer (10 mM TRIS, 107 mM NaCl, pH 7.4) with final concentrations of 1, 5, 7.5, 10, 15, 20, 25, 30 μg/mL at t=50 s and 1.2% trition X-100 (30 μL, 0.012% final concentration) at t=300 s. Fluorescence intensities were normalized to fractional emission intensity I(t) using I(t)=(It−I0)/(I∞−I0) where I0 It at peptide dendrimer addition, I∞=It at saturation of lysis.

[3] = as above; conditions: 10 mM TRIS, 107 mM NaCl, pH 7.4; peptide added at 50 s; remark: listed apart in the source
Procedure: as §1, §2
Bacterial membranes contain relatively large amounts of exposed anionic lipids, while the outer leaflet of the membranes of plants and animals is composed mainly of lipids with no net charge. The charge composition of such membranes can be mimicked with phospholipid vesicles. Large unilamellar vesicles (LUVs) composed of the neutral phospholipid with PC (phosphatidyl choline) or with PG (phosphatidyl glycerol) with negative charges were prepared encapsulating 5(6)-carboxyfluorescein (CF). […] The higher the concentration of MSt-112 the higher is the CF leakage (FIG. 6A). […] Overall the active AMPDs interact with the negatively charged membrane and release the CF.

[4] = tested on: Pseudomonas aeruginosa (strain PA01); test: microbe, parasite or virus in culture; assay type: cell-based; conditions: strain
Procedure, shortened: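 Broth microdilution MIC against P. aeruginosa PAO1 in LB: peptides serially diluted by ⅔, bacteria added at OD600 0.001 and incubated 18–24 h at 37 °C. MTT added; MIC is the lowest concentration preventing visible growth.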

[5] = tested on: Escherichia coli (strain DH5α); assay type: cell-based
Procedure, shortened: (§3)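 Broth microdilution MIC in LB; overnight cultures diluted to OD600 0.001 and mixed 1:1 with ⅔-serially diluted samples (stock 1 mg mL^−1 in H2O), 37° C for 18-24 h. MTT (0.1%) added; MIC read by eye as lowest concentration inhibiting visible growth (yellow).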

[6] = tested on: Bacillus subtilis (strain BR151); assay type: cell-based
Procedure, shortened: as §3

[7] = Proteolytic stability with human serum; assay type: in vitro ADME; conditions: 100 μM peptide, human serum diluted with DMEM, 37 °C, up to 24 h
Procedure: Peptides and peptide dendrimers were prepared as 200 μM stock solution in PBS. 25% Human Serum (diluted with DMEM) was centrifuged at for 15 min at 14000 rpm to remove the lipids and supernatant was collected and incubated for 15 min at 37° C. Proteolysis was initiated upon addition of 50 μL of the test peptide or peptide dendrimer to 50 μL of serum and shaking at 37° C. Final peptide concentration is 100 μM. Reaction mixtures were analyzed after 0, 1, 6, 24 h by addition of ice-cold 10% Trichloroacetic acid (TCA) to precipitate serum proteins. The supernantant was collected for each sample after centrifugation at 14000 rpm for 15 min. and evaporated with a speedvac. After dissolving the solid in 100 μL mQ-H2O they were analyzed by RP-UPLC (flow rate: 1.2 mL/min. gradient: A/D=100/0 to 0/100 in 7.5 min). Conversions of the remaining peptide and peptide dendrimers were calculated by integration of the absorbance at 214 nm by using Chromeleon software.
The peptides were mixed with human serum (previously diluted with DMEM) to a final peptide concentration of 100 μM to determine the stability of AMPDs toward proteases and incubated at 37° C. for 0, 1, 6, or 24 hours. After precipitation of proteins with TCA, the solution was analyzed by analytical RP-UPLC. […] AMPDs MSt-114, MSt-136, MSt-138, MSt-139, MSt-140 and MSt-176 were also checked for their stability. […]

[8] = tested on: P. aeruginosa PAO1 bacterial suspension; test: Detection of peptide in the presence of bacteria; assay type: in vitro ADME, Pseudomonas aeruginosa; conditions: 100 μM peptide, P. aeruginosa PAO1 in LB, 37 °C, up to 24 h
Procedure: Peptides and peptide dendrimers were prepared as 200 μM stock solution in H2O. A colony of bacteria was grown in LB-medium overnight at 37° C. The concentration was quantified by measuring absorbance at 600 nm and diluted to OD600=0.2. Degradation was initiated upon addition of 50 μL of the test peptide or peptide dendrimer to 50 μL of the bacterial suspension and shaking at 37° C. Final peptide concentration is 100 μM and final concentration of bacteria is OD600=0.1 (1×10^8 CFU/mL). Reaction mixtures were analyzed after 0, 1, 6, 9, 24 h by heating up to 95° C. for 5 min. followed by centrifugation for 15 min. at 14000 rpm. 50 μL of the supernantant were collected for each sample and 50 μL A were added giving a concentration of 50 μM. 5 μL of 4-Hydroxybenzoic acid (standard) were added before samples were analyzed by RP-UPLC (flow rate: 1.2 mL/min. gradient: A/D=100/0 to 0/100 in 7.5 min). Conversions of the remaining peptide and peptide dendrimers were calculated by integration of the absorbance at 214 nm by using Chromeleon software.
Bacteria were grown in LB overnight and diluted to OD600=0.2. After addition of the peptides to a concentration of 100 μM the samples were incubated for 0, 1, 6, 9, 24 hours at 37° C. After heating the suspension to 95° C. for 5 min and centrifugation the solution was subjected to UPLC and the remaining peptide was analyzed by using Chromeleon software.

[9] = tested on: human red blood cells (hRBC); test: Haemolysis assay, minimal haemolytic concentration (MHC); assay type: cell-based; conditions: hRBC in PBS pH 7.4, 4 h, room temperature
Procedure: To determine the minimal haemolytic concentration (MHC) stock solutions of 8 mg/mL of the peptide dendrimers in H2O were prepared and 50 μL were diluted serially by ½ in 50 μL PBS (pH 7.4) in 96-well plate (Cornstar or Nunc, polystyrene, untreated). Human red blood cells (hRBC) were obtained by centrifuging 1.5 mL of whole blood from friendly donors at 3000 rpm for 15 minutes. Plasma was discarded and the pellet was re-suspended in a 15 mL falcon tube up to 5 mL of PBS. The washing was repeated three times and the remaining pellet was re-suspended in 10 mL of PBS at a final hRBC concentration of 5%. The hRBC suspension (50 μL) was added to each well and the plate was incubated at room temperature for 4 hours. Minimal haemolytic concentration (MHC) end points were determined by visual inspection of the wells after the incubation period. Controls on each plate included a blank medium control (50 μl PBS+50 μl of hRBC suspension) and a haemolytic activity control (mQ-deionized water 50 μL+50 μL hRBC suspension).
MIC (minimal inhibitory concentration) and MHC (minimal haemolytic concentration, determined on human red blood cells (hRBC)) values are given in μg/mL. When no detectable haemolytic activity was observed, the last measured concentration was used for calculation of the therapeutic index. TI (therapeutic index)=MHC (μg/ml)/geometric mean of MIC (μg/ml). Larger values indicate greater antimicrobial specificity.

Row | Structure (SMILES) | MIC S. aureus (COL, MRSA reference strain) [1] | change of MIC over 15 days (resistance) (B. subtilis BR151) | CF leakage from phosphatidylcholine LUVs [2] | CF leakage from phosphatidylglycerol LUVs [3] | MIC P. aeruginosa PAO1 [4] [µg/mL] | MIC E. coli DH5α ([5]; DH5α) [µg/mL] | MIC B. subtilis BR151 ([6]; strain BR151) [µg/mL] | Stability in human serum (remaining peptide signal, RP-UPLC) [7] | Stability in bacterial suspension (remaining peptide, UPLC) [8] | MHC (minimal haemolytic concentration) [9] | MIC E. coli DH5α ([5]; LB medium) [µg/mL] | MIC B. subtilis BR151 ([6]; LB medium) [µg/mL]
1 | NCC[C@H](NC(=O)[C@H](CCCCNC(=O)[C@H](Cc1c[nH]c2ccccc12)NC(=O)[C@H](CCN)NC(=O)[C@H](CCCCNC(=O)[C@H](Cc1c[nH]c2ccccc12)NC(=O)[C@@H](N)CCN)NC(=O)[C@H](Cc1c[nH]c2ccccc12)NC(=O)[C@@H](N)CCN)NC(=O)[C@H](Cc1c[nH]c2ccccc12)NC(=O)[C@H](CCN)NC(=O)[C@H](CCCCNC(=O)[C@H](Cc1c[nH]c2ccccc12)NC(=O)[C@@H](N)CCN)NC(=O)[C@H](Cc1c[nH]c2ccccc12)NC(=O)[C@@H](N)CCN)C(=O)N[C@@H](Cc1c[nH]c2ccccc12)C(N)=O [MSt-176, (DabW)4(KDabW)2(KDabW)] (I: H-[Dab]WK([Trp-Dab])[Dab]WK[Dab]W-NH2 / II: H-[Dab]WK([Trp-Dab])[Dab]W; amide I:6-II:C; N-terminus assumed) | below 20 μg/mL | did not have a significant change of their MIC values over 15 days | induced CF release | immediate leakage of CF | 1 (≈ 0.416 µM) | 3 (≈ 1.25 µM) | 1 (≈ 0.416 µM) | – | – | – | – | –
2 | CC(C)C[C@H](NC(=O)[C@H](CC(C)C)NC(=O)[C@H](CCCCN)NC(=O)[C@H](C)NC(=O)[C@H](CC(C)C)NC(=O)[C@H](CCCCN)NC(=O)[C@H](CCCCN)NC(=O)[C@H](CC(C)C)NC(=O)[C@H](C)NC(=O)[C@H](CCCCN)NC(=O)[C@H](CCCCN)NC(=O)[C@H](Cc1ccc(O)cc1)NC(=O)[C@@H](N)CCCCN)C(N)=O [RHe-9, (KYKKALKKLAKLL), reference compound] (H-KYKKALKKLAKLL-NH2) | – | – | – | – | – | – | – | completely disappeared | not detectable after 9 hours | not haemolytic | <1 | 4 (≈ 2.59 µM)
